21 compounds from paper PMC10082216 (Nature Communications, 2023) can be followed below.

The subject of assay [1] is mature stage V gametocytes (NF54 strain). In words: microbe, parasite or virus in culture. Conditions: for outcome of primary screen (hit definition): 1.11 µM. In kind it is cell-based, Plasmodium falciparum. Here is the method:
(§1) Screening was conducted as previously described. Briefly, mature stage V gametocytes (NF54 strain) were cultured in vitro, then exposed to the explored compounds and filtered thereafter through layers of microspheres (microsphiltration)[25],[28]. Stiffening activity was determined by comparing gametocytemia up and downstream from the microsphere layers after filtration of drug-exposed gametocytes in 384-well plates using a vacuum manifold. Gametocytemia was assessed using DNA (Sybr Green) and erythrocyte membrane (CellMask) staining. Killing effect was assessed by MitoTracker staining. We screened two small libraries, specifically the Pathogen Box from the Medicine for Malaria Venture and the Kinase Inhibitors Box from GSK (400 and 350 compounds, respectively, Fig. 1A, B), and furthermore the larger ReFrame repurposing library (12,805 compounds, Fig. 1C).
(§2) The Pathogen Box library (400 compounds, provided by MMV-Medicine for Malaria Ventures, Geneva, Switzerland), the Kinase Inhibitors Box library (350 compounds, provided by GSK-Glaxo SmithKline DDW Unit, Tres Cantos, Spain), and the ReFrame library (12,805 compounds provided by the California Institute for Biomedical Research-Calibr, La Jolla, CA, USA) were used according to the providers’ instructions. DMSO-solubilized compounds (10 mM stock concentration) were loaded in 384-well plates (Seahorse, cat. no. 201035−100). Two columns were left empty for the controls. For each compound, 5 nL were pre-spotted in a single well to reach a final concentration of 1.11 μM. The final volume for each well was 45 μl. Controls were prepared as follows: 22.5 nL of DMSO were loaded in 16 wells as negative controls (0.05% final concentration); 22.5 nL of NITD609 (provided by MMV, Geneva, Switzerland) 1 mM were loaded in 8 wells (0.5 μM final concentration), 17 nL of Calyculin A (Sigma, cat. no. C5552) […] were loaded in 6 wells (75 nM final concentration) and 225 nL of Gentian Violet (MolPort, cat. no. 002-133-551) 10 mM were loaded in the remaining 2 wells (50 μM final concentration). Plates were prepared in triplicate for the Pathogen Box and sextuplicate for the Kinase Inhibitors Box.
(§3) Plasmodium falciparum NF54 strain parasites (used for screening campaign) were cultured at 4% hematocrit in RBCs from informed blood donors (blood group A) as previously described. Parasites were taken from the -80 °C freezer, then rapidly melt for 1 minute in a 37 °C water bath. A saline solution was gently added to avoid the lysis. Firstly, NaCl dissolved at 12% in distilled water (1/5 of the volume measured in the cryovial) and then NaCl dissolved at 1.6% (9 times the cryovial’s volume). After that, fresh RBCs were added to allow parasites re-growth. Infected RBCs were kept in RPMI medium (Sigma-Aldrich, cat. no. R4130), supplemented with 10% of decomplemented human serum, hypoxanthine 50 mg/l (Sigma-Aldrich, cat. no. H9636). Biobank of Castilla y Leon and Centro de Transfusiones de Madrid as providers of human red blood cell concentrates. The production of gametocytes was induced from a 0.5% ring-stage parasitemia (day 0). Medium was changed daily to induce gametocytes differentiation, as previously described. At day 17, gametocytes were concentrated using a density gradient medium (NycoPrep 1.077, Progen cat. no. 1114550)[27]. Parasitemia was adjusted by FACS (SYBR-Green and MitoTracker double staining, 3–5% targeted). Hematocrit was adjusted to 0.5% by adding fresh RBCs and controlled by manual counting in a Neubauer chamber (Celeromics, cat. no. 717810). Finally, the gametocyte suspension was poured (45 μL/well) into the compound-containing 384-well microplate, then incubated 24 hours both for the screening campaign and the dose-response analysis. Both asexual and sexual stages were cultivated in RPMI 1640 supplemented with 25 mM HEPES, 50 mg/L hypoxanthine, 50 μg/mL gentami-cin, 10% pooled heat-inactivated human serum (A^+).

Assay [2] shares this test system. The experiment in a line: High-throughput screening: killing effect by MitoTracker staining, primary screening at 1.11 µM and dose-response analysis. The class given is cell-based, Plasmodium falciparum. Conditions: for IC50: stage V gametocytes NF54, 24 h, dose-response analysis, N/A = not active in dose-response analysis, read-out: Killing IC50. Here is the method: as §1, §2, §3

Setting [3] is: stage V gametocytes NF54, 24 h, dose-response analysis, N/A = not active in dose-response analysis, read-out: Stiffening IC50 (retention).
The mark [4] stands for this setting: Plasmodium falciparum, NF54, 24 h, read-out: Stiffening IC50 (retention).
[5] abbreviates: Plasmodium falciparum, NF54, 24 h.

Consider `CCCCN(CCCC)c1ccc2nc3ccc(=[N+](CCCC)CCCC)cc-3sc2c1` [PPA904], for which the IC50 in assay [1] (setting [3]) was found to be 5050 nM; in assay [2], 2420 nM. As to Eseroline, the IC50 in assay [1] (setting [3]) came to 2300 nM; in assay [2], 1560 nM. For the compound `CCCCCCCCN=c1ccn(CCCCCCCCCCn2ccc(=NCCCCCCCC)cc2)cc1` [Octenidine], the IC50 is 1820 nM in assay [1] (setting [4]) and 1250 nM in assay [2] (setting [5]). Turning to `CC[C@@H](C(=O)O)[C@@H]1O[C@@H]([C@@H](C)[C@H](O)[C@H](C)C(=O)[C@H](CC)[C@H]2O[C@]3(C=C[C@@H](O)[C@]4(CC[C@@](C)([C@H]5CC[C@](O)(CC)[C@H](C)O5)O4)O3)[C@H](C)C[C@@H]2C)[C@@H](C)C[C@@H]1C` [Narasin], the IC50 in assay [1] (setting [4]) came to 43000 nM; in assay [2] (Plasmodium falciparum) it was 46000 nM. As for `CN(C)c1ccc2nc3ccc(=[N+](C)C)cc-3sc2c1` [Methylthioninium chloride], the IC50 came out at 2800 nM in assay [1] (Plasmodium falciparum, NF54, 24 h, read-out: Stiffening IC50 (retention), stage V gametocytes NF54, 24 h, dose-response analysis, N/A = not active in dose-response analysis) and 4850 nM in assay [2] (setting [5]). As for `CCCCCCCCCCCCCC[n+]1ccc(C)cc1` [Myristyl-gamma picolinium chloride], the values for the IC50 in assay [1] (setting [3]) and in assay [2] were 7200 nM and 4150 nM, respectively. `CCCN1CCCC(c2ccc(Nc3nc(Nc4cc(F)ccc4C(N)=O)c4cc[nH]c4n3)c(OC)c2)C1` (centres unmarked) [GSK1173862A]: the IC50 in assay [1] (setting [4]) was found to be 345 nM; in assay [2] (setting [5]) it was 2400 nM. Regarding `O=C([O-])[C@H]([O-])[C@@H]([O-])C(=O)[O-].O=C([O-])[C@H]([O-])[C@@H]([O-])C(=O)[O-].[K+].[K+].[Sb+3].[Sb+3]` [Potassium antimonyl tartrate], the half-inhibitory concentration (IC50) in assay [1] (setting [3]) was 10700 nM; in assay [2] it was 3630 nM. Take `COC(=O)[C@@]12OC[C@]34[C@H]([C@@H](O)[C@@H]1O)[C@@]1(C)CC(=O)C(O)=C(C)[C@@H]1C[C@H]3OC(=O)[C@H](OC(=O)/C=C(\C)C(C)C)[C@@H]24` [Bruceantin]: the IC50 in assay [1] (setting [4]) worked out at 20 nM; in assay [2] (Plasmodium falciparum), 160 nM.

In the case of `CCCc1nn(C)c2c(=O)[nH]c(-c3cc(S(=O)(=O)N4CCN(C)CC4)ccc3OCC)nc12` [sildenafil], the “outcome of primary screen (hit definition)” value in assay [1] is given as “not captured by the primary screen”. On to `CC[C@H]1/C=C/C=C/C[C@@H](C)[C@H](O)[C@@](C)(O)C(=O)[C@@H](C)[C@H](O)[C@@H](C)C(=O)[C@@H](C)[C@H](O)[C@@H](C)/C=C/C(=O)O[C@@H]2[C@H](C)[C@H](CC1)O[C@@]1(O[C@@H](C[C@@H](C)O)[C@@H](C)CC1=O)[C@H]2C` [Oligomycin B], for which the values for the IC50 in assay [1] (setting [3]) and in assay [2] were 1550 nM and 5800 nM, respectively. With Gramicidin, the values for the IC50 in assay [1] (setting [3]) and in assay [2] were 70 nM and 8 nM, respectively. Further, in assay [2] (gametocytes), the “killing IC50 in words” value is “low nanomolar range”. For the compound `CNCc1ccc(-c2cc(-c3nc(-c4ccc(S(=O)(=O)C(C)C)cc4)cnc3N)on2)cc1` [VE-822], the IC50 came out at 9500 nM in assay [1] (setting [4]) and 710 nM in assay [2] (setting [5]). As to `CCCN1CCC(c2ccc(Nc3nc(Nc4cc(F)ccc4C(N)=O)c4cc[nH]c4n3)c(OC)c2)CC1` [GSK1326255A], the IC50 in assay [1] (setting [4]) is 480 nM; in assay [2] (setting [5]), 8400 nM. Regarding `C/C=C1\NC(=O)[C@H]2CSSCC/C=C/[C@H](CC(=O)N[C@H](C(C)C)C(=O)N2)OC(=O)[C@H](C(C)C)NC1=O` [Romidepsin], the IC50 in assay [1] (setting [4]) amounted to 5000 nM; in assay [2] (Plasmodium falciparum), 20000 nM. As to `[O-][n+]1ccccc1SSc1cccc[n+]1[O-]` [Bispyrithione], the IC50 in assay [1] (setting [4]) amounted to 2350 nM; in assay [2] (Plasmodium falciparum), 920 nM. Take `CN1CC(=O)N2[C@H](c3ccc4c(c3)OCO4)c3[nH]c4ccccc4c3C[C@@H]2C1=O` [tadalafil]: the “outcome of primary screen (hit definition)” value in assay [1] was “not captured by the primary screen”.

On to Oligomycin A, for which, in assay [1] (read-out: Stiffening IC50 (retention), stage V gametocytes NF54, 24 h, dose-response analysis, N/A = not active in dose-response analysis), the IC50 was 500 nM.

For the compound `COCCn1c2c([n+](Cc3cnccn3)c1C)C(=O)c1ccccc1C2=O` [Sepantronium bromide], the values for the IC50 in assay [1] (setting [4]) and in assay [2] (setting [5]) were 1890 nM and 1350 nM, respectively. On to `CC(C)C[C@H](NC(=O)[C@H](Cc1ccccc1)NC(=O)c1cnccn1)B(O)O` [Bortezomib], for which the IC50 in assay [2] (Plasmodium falciparum) is 2060 nM. Turning to `C[C@]12CCC(=NOCCN)C[C@@H]1C(=O)C[C@@H]1[C@@H]2CC[C@]2(C)C(=O)CC[C@@H]12` [Istaroxime], in assay [1] (setting [4]), the IC50 was found to be 170 nM.
